Where only a bound is given, the exact number is not on record here.

Assay [1] concerns KRAS G12D protein/effector signaling in GP2d cells. The experiment in a line: Cell-based pERK HTRF assay in GP2d cell. The following applies: 60 min incubation. On the procedure:
A pERK assay (Perkin Elmer) was used to determine the effectiveness of compounds in disrupting KRAS G12D protein/effector signaling in cells.
On Day 1, cells (GP2d) were seeded into 96-well plates at 3×10^4 cells/well in 80 μL complete growth media (DMEM, 10% FBS).
On Day 2, cells were treated with compounds at 0.25% DMSO. The source plate was created with compounds diluted in media at 5-fold the final assay concentration. The compounds were run in a 9-point concentration curve starting at […], with a half-log dilution between concentrations. 20 μL was transferred onto the cell plates (final volume in wells was 100 μL). Plates were harvested after 60 min incubation by aspirating media and adding kit-supplied 1× supplemented lysis buffer to all wells (50 μL per well). Plates were then placed on a plate shaker and incubated at 850 rpm for an additional 30 min.
Antibody mixture solution was prepared by diluting aliquoted d2 and Eu Cryptate antibodies 1:20 in kit supplied detection buffer, and mixing the diluted antibodies solutions (1:1 v:v). 4 μL of this solution was then added to a 384-well detection plate (Perkin Elmer; 6008230).
Samples were homogenized by pipetting up and down and then transferred (16 μL of cell lysates) from the 96-well cell culture plate to two wells of the HTRF 384-well detection plate containing the antibody solution. Plates were centrifuged (524 g for 1 min) and allowed to incubate between 4 and 24 h at room temperature. Maximum signal was reached after 4 h incubation time and remained stable over a period of 24 hours. Therefore, readings could be made between 4 and 24 h of incubation. Plates were centrifuged again (524 g for 1 min), then analyzed on the EnVision plate reader using the following settings: Excitation 320 nm, Bandwidth 75 nm; Emission 615 nm, Bandwidth 85 nm; Gain 100%; Flashes 100; Lag 60 μs.
Background: TR-FRET usually uses a lanthanide donor and a delayed reading to cut background.

Assay [2] concerns the target T1, Avi-KRAS WT (1-169) GppNHp/RAF1 RBD-3×FLAG (52-151) (Homo sapiens, UniProt P01116).
T1 construct: 50 nM Avi-KRAS WT (1-169) GppNHp/RAF1 RBD-3×FLAG (52-151)
Put plainly: Disrupting RAS-effector binding HTRF assay, Raf1 RBD-KRAS WT-GppNHp. Particulars: PPI HTRF, 50 nM Avi-KRAS WT GppNHp, compound titration 30-0.0045 μM; read-out: Raf1 RBD-KRAS WT-GppNHp disruption. On the procedure:
(§1) A protein:protein interaction (PPI) Homogeneous Time Resolved Fluorescence (HTRF) assay was used to determine the effectiveness of compounds of the present disclosure in disrupting KRAS protein and effector RAF1 binding.
(§2) The HTRF assay used the following reagents and proteins: (i) 50 nM Avi-KRAS G12D (1-169) GppNHp/RAF1 RBD-3×FLAG (52-151); (ii) 50 nM Avi-KRAS G12R (1-169) GppNHp/RAF1 RBD-3×FLAG (52-151); (iii) 50 nM Avi-KRAS G12V (1-169) GppNHp/RAF1 RBD-3×FLAG (52-151), (iv) 50 nM Avi-KRAS WT (1-169) GppNHp/RAF1 RBD-3×FLAG (52-151); and (v) 75 nM Avi-RAF1 RBD-3×FLAG. The assay buffer included: 50 mM Tris pH 7.5, 100 mM NaCl, 5 mM MgCl2, 0.1% BSA, […], 10% DMSO. The bead buffer included: 50 mM Tris pH 7.5, 0.01% o Tween 20. Assay volume of 20 μL was used in a 384 well plate-low volume format. Compound titration: 30-0.0045 μM, 3× dilution series.
(§3) The HTRF assay employed the following protocol:
(§4) Compounds were dispensed in assay plate (384-well, Grenier Bione #784075) using Echo (model 555) with dose response settings: 200 nL final volume, titration from 30 μM as a 10-point dilution series. Protein mix was prepared in assay buffer, and dispensed on plates, 10 μL per well, then incubated for 1 h at room temperature, with 700 rpm shaking. Reagents mix was prepared and dispensed on plates, 10 μL per well, then incubated for 1 h at room temperature, with 700 rpm shaking.
(§5) Plates were analyzed on an Envision plate reader using the following setting: Excitation 320 nm, Bandwidth 75 nM; Emission 615 nm, Bandwidth 85 nM, Gain 100%, Flashes 100, Lag 60 μs. Data were reported as percentage of activity, with DMSO as 100%. Data were plotted and analyzed using Prism 8.
(§6) The biochemical Raf1-KRAS G12D/G12R/G12V/WT-GppNHP disruption assay IC50 of selected compounds described herein are shown in Table 4.

Assay [3] concerns the target T2, Avi-KRAS G12R (1-169) GppNHp/RAF1 RBD-3×FLAG (52-151) (Homo sapiens, UniProt P01116, G12R).
T2 construct: 50 nM Avi-KRAS G12R (1-169) GppNHp/RAF1 RBD-3×FLAG (52-151)
The experiment in a line: Disrupting RAS-effector binding HTRF assay, Raf1 RBD-KRAS G12R-GppNHp. The following applies: PPI HTRF, 50 nM Avi-KRAS G12R GppNHp, compound titration 30-0.0045 μM; read-out: Raf1 RBD-KRAS G12R-GppNHp disruption. On the procedure: as §1, §2, §3, §4, §5, §6

For assay [4], the target named is T3, Avi-KRAS G12V (1-169) GppNHp/RAF1 RBD-3×FLAG (52-151) (Homo sapiens, UniProt P01116, G12V).
T3 construct: 50 nM Avi-KRAS G12V (1-169) GppNHp/RAF1 RBD-3×FLAG (52-151)
Put plainly: Disrupting RAS-effector binding HTRF assay, Raf1 RBD-KRAS G12V-GppNHp. Particulars: PPI HTRF, 50 nM Avi-KRAS G12V GppNHp, compound titration 30-0.0045 μM; read-out: Raf1 RBD-KRAS G12V-GppNHp disruption. How it is done: as §1, §2, §3, §4, §5, §6

For assay [5], the target named is T4, Avi-KRAS G12D (1-169) GppNHp/RAF1 RBD-3×FLAG (52-151) (Homo sapiens, UniProt P01116, G12D).
T4 construct: 50 nM Avi-KRAS G12D (1-169) GppNHp/RAF1 RBD-3×FLAG (52-151)
The experiment in a line: Disrupting RAS-effector binding HTRF assay, Raf1 RBD-KRAS G12D-GppNHp. The following applies: PPI HTRF, 50 nM Avi-KRAS G12D GppNHp, compound titration 30-0.0045 μM; read-out: Raf1 RBD-KRAS G12D-GppNHp disruption. How it is done: as §1, §2, §3, §4, §5, §6

T1 sequence (P01116 1-169 isoform P01116-2 limits assumed): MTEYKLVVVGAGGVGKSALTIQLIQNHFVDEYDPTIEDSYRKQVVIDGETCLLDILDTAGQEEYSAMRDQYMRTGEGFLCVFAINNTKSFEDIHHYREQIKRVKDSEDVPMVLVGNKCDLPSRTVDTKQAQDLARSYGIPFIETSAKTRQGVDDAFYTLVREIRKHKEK
T4 sequence (P01116 1-169 isoform P01116-2 G12D limits assumed): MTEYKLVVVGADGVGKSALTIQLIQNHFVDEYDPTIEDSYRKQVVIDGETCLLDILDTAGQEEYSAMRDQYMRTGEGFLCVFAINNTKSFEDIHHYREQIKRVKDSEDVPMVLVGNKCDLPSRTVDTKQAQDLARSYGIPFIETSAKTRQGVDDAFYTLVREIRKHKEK
T3 sequence (P01116 1-169 isoform P01116-2 G12V limits assumed): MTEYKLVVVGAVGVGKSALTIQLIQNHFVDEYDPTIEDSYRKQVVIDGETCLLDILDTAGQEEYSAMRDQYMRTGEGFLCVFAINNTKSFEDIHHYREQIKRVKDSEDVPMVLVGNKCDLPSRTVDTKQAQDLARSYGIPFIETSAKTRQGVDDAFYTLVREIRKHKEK
T2 sequence (P01116 1-169 isoform P01116-2 G12R limits assumed): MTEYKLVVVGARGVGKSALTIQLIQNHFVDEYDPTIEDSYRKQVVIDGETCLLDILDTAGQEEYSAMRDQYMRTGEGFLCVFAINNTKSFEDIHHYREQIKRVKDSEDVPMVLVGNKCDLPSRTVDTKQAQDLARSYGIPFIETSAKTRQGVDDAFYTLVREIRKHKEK

Turning to `C[C@@H]1CN(c2ncnc3c(F)c(-c4ccc(F)c5sc(N)c(C#N)c45)c(C(F)(F)F)cc23)[C@@H](C)CN1` [Compound 64], the IC50 is at most 0.1 µM in assay [1] (1 h); above 10 µM in assay [2]; above 10 µM in assay [3]; above 10 µM in assay [4]; 1 to 10 µM in assay [5].

`CCCc1nc(N2CC3CCC(C2)N3)c2cc(C(F)(F)F)c(-c3ccc(F)c4sc(N)c(C#N)c34)c(F)c2n1` [Compound 23]: the IC50 was at most 0.1 µM in assay [1] (1 h); 1 to 10 µM in assay [2]; above 10 µM in assay [3]; above 10 µM in assay [4]; 1 to 10 µM in assay [5].

As to `CN(C)c1nc(N2C[C@H]3CC[C@@H](C2)N3)c2cc(C(F)(F)F)c(-c3ccc(F)c4sc(N)c(C#N)c34)c(F)c2n1` [Compound 10, 4-(4-((1R,5S)-3,8-diazabicyclo[3.2.1]octan-3-yl)-2-(dimethylamino)-8-fluoro-6-(trifluoromethyl)quinazolin-7-yl)-2-amino-7-fluorobenzo[b]thiophene-3-carbonitrile], the IC50 in assay [1] (1 h) was above 1 µM; in assay [2], above 10 µM; in assay [3], above 10 µM; in assay [4], above 10 µM; in assay [5], 1 to 10 µM.

For `CN(c1ncnc2c(F)c(-c3ccc(F)c4sc(N)c(C#N)c34)c(C(F)(F)F)cc12)[C@@H]1CCNC1` [Compound 58], the IC50 in assay [1] (1 h) was 0.1 to 1 µM; in assay [2] it was above 10 µM; in assay [3] it was above 10 µM; in assay [4] it was above 10 µM; in assay [5], 1 to 10 µM.

For `Cc1nc(N2C[C@H]3CC[C@@H](C2)N3)c2cc(C(F)(F)F)c(-c3ccc(F)c4sc(N)c(C#N)c34)c(F)c2n1` [Compound 22, 4-(4-((1R,5S)-3,8-diazabicyclo[3.2.1]octan-3-yl)-8-fluoro-2-methyl-6-(trifluoromethyl)quinazolin-7-yl)-2-amino-7-fluorobenzo[b]thiophene-3-carbonitrile], the IC50 in assay [1] (1 h) was at most 0.1 µM; in assay [2] it was 1 to 10 µM; in assay [3] it was above 10 µM; in assay [4], above 10 µM; in assay [5], 1 to 10 µM.

With `N#Cc1c(N)sc2c(F)ccc(-c3c(C(F)(F)F)cc4c(N5CC6CCC(C5)N6)nc(N5CC(O)C5)nc4c3F)c12` [Compound 16], the IC50 in assay [1] (1 h) was 0.1 to 1 µM; in assay [2], 1 to 10 µM; in assay [3], above 10 µM; in assay [4], above 10 µM; in assay [5], 1 to 10 µM.

Regarding `N#Cc1c(N)sc2c(F)ccc(-c3c(C(F)(F)F)cc4c(N5CC6CCC(C5)N6)nc(OCCc5ccccc5)nc4c3F)c12` [Compound 13], the IC50 in assay [1] (1 h) was 0.1 to 1 µM; in assay [2], above 10 µM; in assay [3], above 10 µM; in assay [4], above 10 µM; in assay [5] it was 1 to 10 µM.

For the molecule `N#Cc1c(N)sc2c(F)ccc(-c3c(C(F)(F)F)cc4c(N5CC6CCC(C5)N6)nc(OC5CC(O)C5)nc4c3F)c12` (stereo not drawn) [Compound 12], the IC50 was 0.1 to 1 µM in assay [1]; 1 to 10 µM in assay [2]; above 10 µM in assay [3]; above 10 µM in assay [4]; 1 to 10 µM in assay [5].

Regarding `N#Cc1c(N)sc2c(F)ccc(-c3c(C(F)(F)F)cc4c(N5CC6CCC(C5)N6)nc(N5CC[C@@H](O)C5)nc4c3F)c12` [Compound 6], the IC50 in assay [1] (1 h) is 0.1 to 1 µM; in assay [2], 1 to 10 µM; in assay [3], above 10 µM; in assay [4], above 10 µM; in assay [5], 1 to 10 µM.

For `CN(C(=O)c1cnn(C)c1)c1nc(N2CC3CCC(C2)N3)c2cc(C(F)(F)F)c(-c3ccc(F)c4sc(N)c(C#N)c34)c(F)c2n1` [Compound 27], the IC50 is 0.1 to 1 µM in assay [1] (1 h); 1 to 10 µM in assay [2]; above 10 µM in assay [3]; above 10 µM in assay [4]; above 10 µM in assay [5].

For `N#Cc1c(N)sc2c(F)ccc(-c3c(C(F)(F)F)cc4c(N5CC6CCC(C5)N6)nc(OC[C@@H]5CC(=O)N5)nc4c3F)c12` [Compound 39], the IC50 in assay [1] (1 h) was 0.1 to 1 µM; in assay [2] it was 1 to 10 µM; in assay [3], above 10 µM; in assay [4], above 10 µM; in assay [5] it was 1 to 10 µM.

For `CNc1nc(N2CC3CCC(C2)N3)c2cc(C(F)(F)F)c(-c3ccc(F)c4sc(N)c(C#N)c34)c(F)c2n1` [Compound 9], the IC50 is 0.1 to 1 µM in assay [1] (1 h); 1 to 10 µM in assay [2]; above 10 µM in assay [3]; above 10 µM in assay [4]; 1 to 10 µM in assay [5].

For the molecule `N#Cc1c(N)sc2c(F)ccc(-c3c(C(F)(F)F)cc4c(N5CC6CCC(C5)N6)nc(OC[C@H]5CNC(=O)C5)nc4c3F)c12` [Compound 24], the IC50 in assay [1] (1 h) is at most 0.1 µM; in assay [2] it was 0.1 to 1 µM; in assay [3], 1 to 10 µM; in assay [4] it was 1 to 10 µM; in assay [5], 0.1 to 1 µM.

As to `CCCOc1nc(N2CC3CCC(C2)N3)c2cc(C(F)(F)F)c(-c3ccc(F)c4sc(N)c(C#N)c34)c(F)c2n1` [Compound 3], the IC50 in assay [1] (1 h) was 0.1 to 1 µM; in assay [2] it was 1 to 10 µM; in assay [3], above 10 µM; in assay [4], above 10 µM; in assay [5], 1 to 10 µM.

As to `N#Cc1c(N)sc2c(F)ccc(-c3c(C(F)(F)F)cc4c(N5CC6CCC(C5)N6)nc(N5CCC5)nc4c3F)c12` [Compound 14], the IC50 in assay [1] (1 h) is 0.1 to 1 µM; in assay [2] it was 1 to 10 µM; in assay [3] it was above 10 µM; in assay [4], above 10 µM; in assay [5], 1 to 10 µM.
